Assay results published in patent US20110033946A1, “DETECTION OF SHORT-CHAIN FATTY ACIDS IN BIOLOGICAL SAMPLES” (HEMAQUEST PHARMACEUTICALS, INC., priority 2009, published 2011).
“And” between values parts separate entries of the source, which are not always exact repeats. Identical values can stand only once. Like-named read-outs stand apart in the source and are kept apart here.

Tests used:
[1] = format: physicochemical, human; conditions: for Long-term freezer stability, Mean concentration / Long-term freezer stability, RE % (mean vs nominal): human
Protocol: (§1) The following samples were also analyzed either in conjunction with one of the precision and accuracy runs or in one of the additional validation runs. Samples from six lots of control human plasma for specificity. Samples from six lots of control human plasma fortified with internal standard for specificity. Two concentration levels of unextracted QC-samples in triplicate (solvent standards) were analyzed for the evaluation of the recovery of sodium 2,2-dimethylbutyrate and DMV in human plasma. Two levels of QC samples (Low QC and High QC in triplicate) were subjected to three freeze/thaw cycles at approximately −70° C. prior to extraction to evaluate freeze/thaw stability. Two levels of QC samples (Low QC and High QC in triplicate) were placed on the bench top for approximately 17 hours prior to extraction for the evaluation of the bench top stability. Triplicate low QC samples and triplicate high QC samples were stored for one month and three months in a freezer at approximately −70° C., and then extracted and analyzed to evaluate long term stability in human plasma. Two levels of extracted QC samples (Low QC and High QC) were re-analyzed after approximately 71 hours in the autosampler at room temperature to evaluate the extract autosampler stability. Two levels of extracted QC samples (Low QC and High QC) were re-analyzed after approximately 8 hours in the freezer at approximately −20° C. to evaluate the extract freeze stability. Three aliquots of a dilution QC sample diluted 10-fold. Triplicate dilutions of the old stock solution (stored at approximately 4° C.) and new stock solutions prepared at intervals of two weeks and one month. Statistical calculations in the report tables were calculated from unrounded concentration values taken directly from the raw data. The concentration values were rounded for display purposes.
QC-Low and QC-High plasma samples, which had been stored in a freezer at approximately −70° C. for one month and three months, were extracted in triplicate and analyzed. The CV % values for the QC-Low and QC-High stability samples range from 4.0% to 11.1%. To calculate the RE %, the measured mean concentration was compared to the nominal concentration. The RE % values for the QC-Low and QC-High stability samples range from −13.7% to 4.1%. All CV % values and RE % values are within the acceptance criteria (≦15% and ±15% respectively).

[2] = Freeze/thaw cycle stability in rat plasma; format: physicochemical; conditions: three freeze/thaw cycles at approximately −70° C.
Protocol: (§2) For the remaining validation tests, a calibration curve and triplicates QCs at the low, mid and high levels were analyzed with each sample set. The following samples were also analyzed either in conjunction with one of the precision and accuracy runs or in one of the additional validation runs: Samples from six lots of control rat plasma for specificity; Samples from six lots of control rat plasma fortified with internal standard for specificity; Two concentration levels of unextracted QC-samples in triplicate (solvent standards) were analyzed for the evaluation of the recovery of sodium 2,2-dimethylbutyrate and DMV in rat plasma; Two levels of QC samples (Low QC and High QC in triplicate) were subjected to three freeze/thaw cycles at approximately −70° C. prior to extraction to evaluate freeze/thaw stability; Two levels of QC samples (Low QC and High QC in triplicate) were placed on the bench top for approximately 17 hours prior to extraction for the evaluation of the bench top stability; Triplicate low QC samples and triplicate high QC samples were stored for one month and three months in a freezer at approximately −70° C., and then extracted and analyzed to evaluate long term stability in rat plasma; Three aliquots of a dilution QC sample diluted 10-fold.
The stability of sodium 2,2-dimethylbutyrate in rat plasma was evaluated at approximately −70° C. for three cycles using QC-Low and QC-High samples in triplicate. The freeze time was at least 12-24 hours, with a minimum thaw time of one hour. The CV % values for the QC-Low and QC-High stability samples are 13.3% and 4.6%, respectively. To calculate the RE %, the measured mean concentration was compared to the nominal concentration.

[3] = Extract autosampler stability (human plasma extract); format: physicochemical; conditions: for Extract autosampler stability, Mean concentration / Extract autosampler stability, RE % (mean vs nominal) / Extract autosampler stability, concentration found (replicate): at least 71 hours in autosampler, ambient
Protocol: as §1
After extraction, the QC samples were analyzed and left in the autosampler for at least 71 hours, then re-injected onto the LC-MS/MS. Triplicate QC-Low and QC-High samples were analyzed for the autosampler stability determination. The CV % values for the QC-Low and QC-High stability samples are 7.5% and 6.4%, respectively. To calculate the RE %, the measured mean concentration was compared to the nominal concentration. The RE % values for the QC-Low and QC-High stability samples are 1.9% and 4.6%, respectively.

[4] = format: physicochemical, dog; conditions: for Bench top stability, Mean concentration / Bench top stability, RE % (mean vs nominal): dog, 17 h
Protocol: as §2, with “control dog” for “control rat”, “for specificity.” for “for specificity; Samples from six lots of control rat plasma fortified with internal standard for specificity;”, “in dog plasma.” for “in rat plasma;”, “freeze/thaw stability.” for “freeze/thaw stability;”, “top stability.” for “top stability;”
Bench top stability was evaluated at room temperature for approximately 17 hours. Triplicate QC-Low and QC-High samples were extracted and analyzed after these storage conditions. The CV % values for the QC-Low and QC-High stability samples are 3.2% and 3.4%, respectively. To calculate the RE %, the measured mean concentration was compared to the nominal concentration. The RE % values for the QC-Low and QC-High stability samples are 2.1% and −10.7%, respectively.

Time stable in freezer ([1]; human plasma, approximately −70° C.): up to three months
Long-term freezer stability, Mean concentration ([1]; 1 month, 0.6 μg/mL): 0.552 µg/mL
Long-term freezer stability, RE % (mean vs nominal) ([1]; 1 month, 0.6 μg/mL): −7.9%
Long-term freezer stability, Mean concentration ([1]; 1 month, 40 μg/mL): 38.2 µg/mL
Long-term freezer stability, RE % (mean vs nominal) ([1]; 1 month, 40 μg/mL): −4.6%
Long-term freezer stability, Mean concentration ([1]; 3 months, 0.6 μg/mL): 0.624 µg/mL
Long-term freezer stability, RE % (mean vs nominal) ([1]; 3 months, 0.6 μg/mL): 4.1%
Long-term freezer stability, Mean concentration ([1]; 3 months, 40 μg/mL): 34.5 µg/mL
Long-term freezer stability, RE % (mean vs nominal) ([1]; 3 months, 40 μg/mL): −13.7%
Stability after freeze/thaw cycles [2]: stable
Freeze/thaw cycle stability, Mean concentration ([2]; QC-High, nominal 40.0 μg/mL): 41.2 µg/mL
Freeze/thaw cycle stability, RE % (mean vs nominal) ([2]; QC-High, nominal 40.0 μg/mL): 3.1%
Freeze/thaw cycle stability, concentration found (replicate) ([2]; QC-High, nominal 40.0 μg/mL): 41.7 µg/mL and 39.2 µg/mL and 42.9 µg/mL
Freeze/thaw cycle stability, Mean concentration ([2]; QC-Low, nominal 0.60 μg/mL): 0.575 µg/mL
Freeze/thaw cycle stability, RE % (mean vs nominal) ([2]; QC-Low, nominal 0.60 μg/mL): −4.1%
Time stable in the extract in the autosampler ([3]; ambient storage in the autosampler): at least 71 hours
Extract autosampler stability, Mean concentration ([3]; QC-High, nominal 40.0 μg/mL): 41.8 µg/mL
Extract autosampler stability, RE % (mean vs nominal) ([3]; QC-High, nominal 40.0 μg/mL): 4.6%
Extract autosampler stability, concentration found (replicate) ([3]; QC-High, nominal 40.0 μg/mL): 42.9 µg/mL and 43.8 µg/mL and 38.8 µg/mL
Extract autosampler stability, Mean concentration ([3]; QC-Low, nominal 0.60 μg/mL): 0.611 µg/mL
Extract autosampler stability, RE % (mean vs nominal) ([3]; QC-Low, nominal 0.60 μg/mL): 1.9%
Time stable on bench top ([4]; dog plasma, ambient bench top storage): approximately 17 hours
Bench top stability, Mean concentration ([4]; 0.6 μg/mL): 0.613 µg/mL
Bench top stability, RE % (mean vs nominal) ([4]; 0.6 μg/mL): 2.1%
Bench top stability, Mean concentration ([4]; 40 μg/mL): 35.7 µg/mL
Bench top stability, RE % (mean vs nominal) ([4]; 40 μg/mL): −10.7%
SMILES: CCC(C)(C)C(=O)[O-].[Na+] [Sodium 2,2-Dimethylbutyrate]
Freeze/thaw cycle stability, concentration found (replicate) ([2]; QC-Low, nominal 0.60 μg/mL): 0.491 µg/mL and 0.595 µg/mL and 0.640 µg/mL
Extract autosampler stability, concentration found (replicate) ([3]; QC-Low, nominal 0.60 μg/mL): 0.663 µg/mL and 0.575 µg/mL and 0.596 µg/mL
